# Molecular target: T1, Sterol O-acyltransferase 1 (Rattus norvegicus, UniProt O70536)
# T1 sequence (O70536 whole entry): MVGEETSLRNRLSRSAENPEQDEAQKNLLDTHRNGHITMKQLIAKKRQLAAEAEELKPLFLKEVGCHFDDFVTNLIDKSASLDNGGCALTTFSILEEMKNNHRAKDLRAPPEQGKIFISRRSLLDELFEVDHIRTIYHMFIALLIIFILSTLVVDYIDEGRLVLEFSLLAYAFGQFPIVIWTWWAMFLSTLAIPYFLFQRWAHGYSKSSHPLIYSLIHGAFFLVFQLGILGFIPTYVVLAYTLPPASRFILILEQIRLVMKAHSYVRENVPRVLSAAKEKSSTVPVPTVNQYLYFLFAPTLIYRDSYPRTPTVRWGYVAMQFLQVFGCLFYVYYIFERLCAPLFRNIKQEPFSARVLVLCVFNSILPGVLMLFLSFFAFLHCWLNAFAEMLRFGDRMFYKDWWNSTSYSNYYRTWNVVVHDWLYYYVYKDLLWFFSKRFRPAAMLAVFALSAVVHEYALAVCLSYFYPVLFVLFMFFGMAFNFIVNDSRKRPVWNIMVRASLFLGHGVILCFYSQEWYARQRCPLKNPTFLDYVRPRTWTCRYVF
# Assay: Inhibition of rat liver microsomal ACAT
row,SMILES,IC50 [µM]
1,C=C1[C@@H](O)[C@H](O)C[C@]2(C)[C@H]3[C@@H]4O[C@@H]4[C@]45OC(=O)[C@@]6(CC[C@@H](C)[C@H](C)[C@H]64)CC[C@@]5(C)[C@]3(C)CC[C@@H]12 [ULMOIDOL],468
2,C=C1[C@@H](O)[C@H](O)C[C@]2(C)[C@H]3C=C[C@]45OC(=O)[C@@]6(CC[C@@H](C)[C@H](C)[C@H]64)CC[C@@]5(C)[C@]3(C)CC[C@@H]12 [ILEKUDINOL A],154
3,C=C(C)[C@@H]1CC[C@]2(CO)CC[C@]3(C)[C@H](CC[C@@H]4[C@@]5(C)CC[C@H](O)[C@](C)(CO)[C@@H]5CC[C@]43C)[C@@H]12 [ILEKUDINOL C],328
4,C=C1[C@@H](O)[C@H](O)C[C@]2(C)[C@H]3CC=C4[C@@H]5[C@@H](C)[C@H](C)CC[C@]5(C(=O)O)CC[C@@]4(C)[C@]3(C)CC[C@@H]12 [ILEKUDINOL B],44

# Further lines, results first:
row,IC50 [µM],SMILES
1,64,C[C@H]1[C@H](C)CC[C@]2(C(=O)O)CC[C@]3(C)C(=CC[C@@H]4[C@@]5(C)CC[C@H](O)[C@@](C)(CO)[C@@H]5CC[C@]43C)[C@H]12
2,73,C[C@H]1[C@H](C)CC[C@]2(C(=O)O)CC[C@]3(COC(=O)/C=C/c4ccc(O)cc4)C(=CC[C@@H]4[C@@]5(C)CC[C@H](O)C(C)(C)[C@@H]5CC[C@]43C)[C@H]12
3,194,C[C@H]1[C@H](C)CC[C@]2(C(=O)O)CC[C@]3(COC(=O)/C=C\c4ccc(O)cc4)C(=CC[C@@H]4[C@@]5(C)CC[C@H](O)[C@@](C)(CO)[C@@H]5CC[C@]43C)[C@H]12
